The data set has as its system CCRIS mutagenicity, Ames/micronucleus/aberration tests. The data set is described as follows: CCRIS mutagenicity studies.
The mark [1] stands for this setting: Test System: AMES SALMONELLA TYPHIMURIUM, Strain/Indicator: TA100, Metabolic Activation: NONE, Method: PREINCUBATION
The mark [2] stands for this setting: Test System: AMES SALMONELLA TYPHIMURIUM, Strain/Indicator: TA100, Metabolic Activation: RAT, LIVER, S-9, AROCLOR 1254, Method: STANDARD PLATE.

Active and inactive are the calls of the source. The rule behind the calls is not given here.

For `CC(C)N`, the mutagenic call is, setting by setting: (Test System: AMES SALMONELLA TYPHIMURIUM, Strain/Indicator: TA98, Metabolic Activation: HAMSTER, LIVER, S-9, AROCLOR 1254 (10%), Method: PREINCUBATION) “inactive; negative”; (Test System: AMES SALMONELLA TYPHIMURIUM, Strain/Indicator: TA98, Metabolic Activation: NONE, Method: PREINCUBATION) “inactive; negative”; (Test System: AMES SALMONELLA TYPHIMURIUM, Strain/Indicator: TA98, Metabolic Activation: RAT, LIVER, S-9, AROCLOR 1254 (10%), Method: PREINCUBATION) “inactive; negative”; (Test System: AMES SALMONELLA TYPHIMURIUM, Strain/Indicator: TA100, Metabolic Activation: HAMSTER, LIVER, S-9, AROCLOR 1254 (10%), Method: PREINCUBATION) “inactive; negative”; under setting [1], “inactive; negative”; (Test System: AMES SALMONELLA TYPHIMURIUM, Strain/Indicator: TA100, Metabolic Activation: RAT, LIVER, S-9, AROCLOR 1254 (10%), Method: PREINCUBATION) “inactive; negative”. Further, the mutagenic call (Test System: AMES SALMONELLA TYPHIMURIUM, Strain/Indicator: TA1535, Metabolic Activation: HAMSTER, LIVER, S-9, AROCLOR 1254 (10%), Method: PREINCUBATION) was “inactive; negative”; the mutagenic call (Test System: AMES SALMONELLA TYPHIMURIUM, Strain/Indicator: TA1535, Metabolic Activation: NONE, Method: PREINCUBATION) is “inactive; negative”; the mutagenic call (Test System: AMES SALMONELLA TYPHIMURIUM, Strain/Indicator: TA1535, Metabolic Activation: RAT, LIVER, S-9, AROCLOR 1254 (10%), Method: PREINCUBATION) was “inactive; negative”; the mutagenic call (Test System: AMES SALMONELLA TYPHIMURIUM, Strain/Indicator: TA1537, Metabolic Activation: HAMSTER, LIVER, S-9, AROCLOR 1254 (10%), Method: PREINCUBATION) is “inactive; negative”; the mutagenic call (Test System: AMES SALMONELLA TYPHIMURIUM, Strain/Indicator: TA1537, Metabolic Activation: NONE, Method: PREINCUBATION) is “inactive; negative”; the mutagenic call (Test System: AMES SALMONELLA TYPHIMURIUM, Strain/Indicator: TA1537, Metabolic Activation: RAT, LIVER, S-9, AROCLOR 1254 (10%), Method: PREINCUBATION) was “inactive; negative”. Moreover, where the note is “Test System: UDS RODENT HEPATOCYTES, Strain/Indicator: THY INCORP (NON-S-PHASE), Metabolic Activation: NONE, Method: LIQUID SCINTILLATION COUNTING”, the mutagenic call is “inactive; negative”.

On to `Cc1cc2[nH]c3cc(C)c4ccccc4c3c2c2ccccc12`, for which the mutagenic call under setting [2] is “active; positive”.

`NC(=O)OC[C@@H]1[C@H](NC(=O)/C(=N\OCC(=O)O)c2csc(N)n2)C(=O)N1S(=O)(=O)O`: the mutagenic call is “inactive; negative” (Test System: AMES SALMONELLA TYPHIMURIUM, Strain/Indicator: TA98, Metabolic Activation: NONE); “inactive; negative” (Test System: AMES SALMONELLA TYPHIMURIUM, Strain/Indicator: TA98, Metabolic Activation: S-9); “inactive; negative” (Test System: AMES SALMONELLA TYPHIMURIUM, Strain/Indicator: TA100, Metabolic Activation: NONE); “inactive; negative” (Test System: AMES SALMONELLA TYPHIMURIUM, Strain/Indicator: TA100, Metabolic Activation: S-9); “inactive; negative” (Test System: AMES SALMONELLA TYPHIMURIUM, Strain/Indicator: TA1537, Metabolic Activation: NONE); “inactive; negative” (Test System: AMES SALMONELLA TYPHIMURIUM, Strain/Indicator: TA1537, Metabolic Activation: S-9). The mutagenic call reads like this: (Test System: E. COLI, Strain/Indicator: WP2 (HCR), Metabolic Activation: NONE) “inactive; negative”; (Test System: E. COLI, Strain/Indicator: WP2 (HCR), Metabolic Activation: S-9) “inactive; negative”.

On to `c1ccc2c(c1)ccc1cc3c(ccc4ccncc43)cc12`, for which the mutagenic call reads like this: (Test System: AMES SALMONELLA TYPHIMURIUM, Strain/Indicator: TA98, Metabolic Activation: NONE, Method: STANDARD PLATE) “inactive; negative”; (Test System: AMES SALMONELLA TYPHIMURIUM, Strain/Indicator: TA98, Metabolic Activation: RAT, LIVER, S-9, AROCLOR 1254 (10%), Method: STANDARD PLATE) “active; positive”; (Test System: AMES SALMONELLA TYPHIMURIUM, Strain/Indicator: TA98, Metabolic Activation: RAT, LIVER, S-9, AROCLOR 1254, Method: STANDARD PLATE) “active; positive”; (Test System: AMES SALMONELLA TYPHIMURIUM, Strain/Indicator: TA100, Metabolic Activation: NONE, Method: STANDARD PLATE) “inactive; negative”; (Test System: AMES SALMONELLA TYPHIMURIUM, Strain/Indicator: TA100, Metabolic Activation: RAT, LIVER, S-9, 1254 (10%), Method: STANDARD PLATE) “active; positive”; under setting [2], “active; positive”.

Turning to `CC1(C)C(C=C(Cl)Cl)C1C(=O)OC(C#N)c1ccc(F)c(Oc2ccccc2)c1` (stereo unspecified), the mutagenic call runs as follows: (End Point: In vitro chromosomal aberrations, Test System: Human lymphocytes, Metabolic Activation: Male Sprague-Dawley rat, liver, S-9, Aroclor 1254) “inactive; negative”; (End Point: In vitro chromosomal aberrations, Test System: Human lymphocytes, Metabolic Activation: None) “inactive; negative”; (End Point: In vitro chromosomal aberrations, Test System: Human lymphocytes, Metabolic Activation: S-9 (No details given by DPR evaluator)) “inactive; negative”; (End Point: In vivo micronucleus, Test System: Bone marrow erythrocytes, Strain/Indicator: Bor:NMRI (SPF Han)/ Female, Species: Mouse, Route: Oral) “inactive; negative (no significant effect on frequency of micronucleated polychromatic ery”; (End Point: In vivo micronucleus, Test System: Bone marrow erythrocytes, Strain/Indicator: Bor:NMRI (SPF Han)/ Male, Species: Mouse, Route: Oral) “inactive; negative (no significant effect on frequency of micronucleated polychromatic ery”; (Test System: Ames Salmonella typhimurium, Strain/Indicator: TA98, Metabolic Activation: None, Method: Plate incorporation) “inactive; negative”. Besides, the mutagenic call is “inactive; negative” (Test System: Ames Salmonella typhimurium, Strain/Indicator: TA98, Metabolic Activation: S-9 (Additional details not given by DPR evaluator), Method: Plate incorporation); “inactive; negative” (Test System: Ames Salmonella typhimurium, Strain/Indicator: TA100, Metabolic Activation: None, Method: Plate incorporation); “inactive; negative” (Test System: Ames Salmonella typhimurium, Strain/Indicator: TA100, Metabolic Activation: S-9 (Additional details not given by DPR evaluator), Method: Plate incorporation); “inactive; negative” (Test System: Ames Salmonella typhimurium, Strain/Indicator: TA1535, Metabolic Activation: None, Method: Plate incorporation); “inactive; negative” (Test System: Ames Salmonella typhimurium, Strain/Indicator: TA1535, Metabolic Activation: S-9 (Additional details not given by DPR evaluator), Method: Plate incorporation); “inactive; negative” (Test System: Ames Salmonella typhimurium, Strain/Indicator: TA1537, Metabolic Activation: None, Method: Plate incorporation). The mutagenic call (Test System: Ames Salmonella typhimurium, Strain/Indicator: TA1537, Metabolic Activation: S-9 (Additional details not given by DPR evaluator), Method: Plate incorporation) was “inactive; negative”; the mutagenic call (Test System: CHO-HGPRT, Strain/Indicator: CHO-Ki-BH4 cells, Metabolic Activation: None, Method: Forward mutation assay) is “inactive; negative”; the mutagenic call (Test System: CHO-HGPRT, Strain/Indicator: CHO-Ki-BH4 cells, Metabolic Activation: S-9 (No additional details presented by DPR evaluator), Method: Forward mutation assay) is “inactive; negative”; the mutagenic call (Test System: UDS Rat hepatocytes, Strain/Indicator: Thymidine incorporation, Metabolic Activation: None, Method: Autoradiography) was “inactive; negative”.

Regarding `Cc1cccc(NO)c1C`, the mutagenic call was “active; positive” under setting [1] and “active; positive” (Test System: AMES SALMONELLA TYPHIMURIUM, Strain/Indicator: TA100, Metabolic Activation: RAT, LIVER, S-9, PCB, Method: PREINCUBATION).

(Values after PubChem BioAssay AID1259407 (Chemical Carcinogenesis Research Information System (CCRIS), 2018).)
